# According to US20220387403A1, “COMPOUNDS, COMPOSITIONS AND METHODS FOR TREATING NASH, NAFLD, AND OBESITY” (CVI Pharmaceuticals Limited, priority 2019, published 2022):
# Like-named read-outs stand apart in the source and are kept apart here.
# Legend:
# [1] = tested on: hyperlipidemic rabbits; conditions: rabbit, in vivo
# [2] = tested on: hyperlipidemic rabbits; experiment: Lipid lowering effects and blood chemistry in hyperlipidemic rabbits; conditions: for serum total cholesterol level: in mM
# [3] = tested on: HepG2 cells; experiment: DiI-LDL uptake (LDLR ligand uptake activity) in HepG2 cells; assay type: cell-based, human; conditions: for Activity on DiI-LDL uptake: A, compound dose ≤ 10 μM, 20 hours
# Method: HepG2 cells (2×10^5 cells/well) in 24-well culture plates were treated with various compounds at indicated concentrations for 20 hours. The fluorescent 1.1′-dioctadecyl-3,3,3′,3′-tetramethylindocarbocyanin perchlorate (DiI-LDL) (Biomedical Technologies, Stoughton, Mass.) at a concentration of 2 μg/mL was added to cells at the end of treatment. After 4 hours, the medium was removed, cells were washed with cold PBS, and were examined immediately under a fluorescent microscope (Nikon) at 200× amplification. The fluorescent intensity in compound-treated cells was compared to that in untreated control cells. […] In these experiments berberine chloride was used for comparison.
# The combined beneficial effects of these novel compounds on elevation of LDLR mRNA levels likely through the mechanism of mRNA stabilization and their inhibitory activity towards PCSK9, the secreted protease that degrades LDLR protein, result in strong increases in LDL ligand uptake activity through increased receptor surface abundance. […] Briefly, HepG2 cells (2×10^5 cells/well) in 24-well culture plates were treated with various compounds at 10 and 40 uM concentrations for 20 hours. The fluorescent 1. 1′-dioctadecyl-3,3,3′, 3′-tetramethylindocarbocyanin perchlorate (DiI-LDL) (Biomedical Technologies, Stoughton, Mass.) at a concentration of 2 μg/ml was added to cells at the end of treatment. After 4 hours, the medium was removed; cells were washed with cold PBS, and were examined immediately under a fluorescent microscope (Nikon) at 200× amplification. The fluorescent intensity in compound-treated cells was compared to that in untreated control cells. […]
# [4] = tested on: LDLR mRNA; experiment: LDLR mRNA expression in HepG2 cells, quantitative real-time RT-PCR; assay type: cell-based, human; conditions: 24 hours; for Activity on LDLR mRNA expression (Fold of control): dose less than or equal to 10 μM; for Activity on LDLR mRNA at 40 uM (fold of control) / Activity on LDLR mRNA at 10 uM (fold of control): mean ± s.d.
# Method: Activities of some compounds of Formulas I, II, III, and IV on LDLR mRNA expression were determined. HepG2 cells were treated with new compounds individually at a dose less than or equal to 10 μM for 24 hours. Total RNA was harvested for quantitative real-time RT-PCR analysis using the method described in Example 16B. […] In these experiments, berberine chloride was included for comparison. […]
# Total RNA was harvested for quantitative real-time RT-PCR analysis using method described in Examples 16B.
# The effects of 23 compounds on the mRNA expressions of LDLR and PCSK9 were examined using quantitative real-time RT-PCR assays. HepG2 cells were treated with various compounds at 10 and 40 uM concentrations for 24 hours. Total RNA was isolated and 2 μg was used to generate cDNA in a reaction containing random primers and M-MLV at 37° C. for 1 h in a volume of 25 μl. Real-time PCR was performed on the cDNA using MCEP REALPLEX 2 SYSTEM (Eppendorf) and Universal MasterMix (Applied Biosystems). Human LDLR, PCSK9, and GAPDH Pre-Developed TaqMan Assay Reagents (Applied Biosystems) were used to assess the levels of mRNA expressions in HepG2. The levels of LDLR and PCSK9 mRNA were normalized to that of GAPDH. Each RNA samples was assayed in duplicate. The fold activity was calculated by dividing mRNA abundance in compound treated cells with that of control.
# [5] = tested on: NAFLD hamster model; experiment: High fat and high cholesterol diet induced NAFLD hamster model; assay type: in vivo; conditions: C128 10, 20 and 40 mg/kg; fenofibrate 50 mg/kg; 4 weeks
# Method: In a high fat and high cholesterol diet (HFHCD) induced non-alcoholic fat liver disease (NAFLD) hamster model, hamsters were fed a HFHCD for two weeks then treated for 4 weeks with C128 at 10 mg/kg, 20 mg/kg and 40 mg/kg, along with fenofibrate at 50 mg/kg as a positive control. Serum lipids and liver enzymes were measured using standard techniques. Liver tissue histopathology with Oil-red O staining and H&E staining were also performed.
# In a high fat and high cholesterol diet (HFHCD) induced NAFLD hamster model, hamsters were fed a HFHCD for two weeks then treated for 4 weeks with C127 at 80 mg/kg or with fenofibrate 50 mg/kg.
# [6] = after 14 days of drug treatment, mean, n = 6
# [7] = treatment day 0 (before the drug treatment), mean ± SD, n = 6
# [8] = treatment day 4, 128(+)/128(−) 30 mg/kg, SMV/ATV 3 mg/kg once a day oral gavage
# [9] = treatment day 7, 128(+)/128(−) 30 mg/kg, SMV/ATV 3 mg/kg once a day oral gavage
# [10] = treatment day 10, from day 7 128(+)/128(−) 60 mg/kg, SMV/ATV 10 mg/kg
# [11] = treatment day 14, from day 7 128(+)/128(−) 60 mg/kg, SMV/ATV 10 mg/kg
# [12] = 40 uM, 20 hours (second symbol of the cell)
# [13] = 10 uM, 20 hours (first symbol of the cell)
compound,measurement,setting,value
"CC(C)c1c(C(=O)Nc2ccccc2)c(-c2ccccc2)c(-c2ccc(F)cc2)n1CC[C@@H](O)C[C@@H](O)CC(=O)O [ATV, atorvastatin, reference compound]",ALP,[1],333.5 IU/L
same,ALT,[1],795.6 IU/L
same,AST,[1],767.0 IU/L
same,CK,[1],7270.0 U/L
same,CREA,[1],238.2 µmol/L
same,GLU,[1],6.7 mmol/L
same,LDH,[1],675.0 IU/L
same,HDL-C,[2]; [6],3.6 mmol/L
same,LDL-C,[2]; [6],29.6 mmol/L
same,TC,[2]; [6],33.9 mmol/L
same,TG,[2]; [6],1.7 mmol/L
same,serum total cholesterol level,[2]; [7],28.9 ± 6.0
same,serum total cholesterol level,[2]; [8],26.5 ± 5.2
same,serum total cholesterol level,[2]; [9],31.5 ± 4.9
same,serum total cholesterol level,[2]; [10],32.5 ± 4.5
same,serum total cholesterol level,[2]; [11],33.9 ± 6.5
"COc1ccc2c(c1O)CN1CCc3cc4c(cc3C1C2)OCO4 (stereo not drawn) [Compound 34, 10-methoxy-5,6,7,8,13,13a-hexahydro-2H-1,3-dioxolano[4,5-g]isoquinolino[3,2-a]isoqunolin-9-ol]",Activity on DiI-LDL uptake,[3],++
same,Activity on LDLR mRNA expression (Fold of control),[4],1.76 ± 0.17 Fold of control
"COc1ccc2c(c1OC(=O)NC(C)C)CN1CCc3cc4c(cc3C1C2)OCO4 (stereo not drawn) [Compound 41, (10-methoxy(5,6,7,8,13,13a-hexahydro-2H-1,3-dioxolano[4,5-g]isoquinolino[3,2-a]isoquinolin-9-yloxy))-N-(methylethyl)carboxamide]",Activity on DiI-LDL uptake,[3],++
same,Activity on LDLR mRNA expression (Fold of control),[4],1.60 ± 0.03 Fold of control
"COc1ccc2c(c1OC(=O)N(C)C)CN1CCc3cc4c(cc3C1C2)OCO4 (stereo not drawn) [Compound 43, (10-methoxy(5,6,7,8,13,13a-hexahydro-2H-1,3-dioxolano[4,5-g]isoquinolino[3,2-a]isoquinolin-9-yloxy))-N,N-dimethylcarboxamide]",Activity on DiI-LDL uptake,[3],++
same,Activity on LDLR mRNA expression (Fold of control),[4],1.95 ± 0.18 Fold of control
"COc1ccc2c(c1OC(=O)Nc1ccc(OC(F)(F)F)cc1)CN1CCc3cc4c(cc3C1C2)OCO4 (stereo not drawn) [Compound 44, (10-methoxy(5,6,7,8,13,13a-hexahydro-2H-1,3-dioxolano[4,5-g]isoquinolino[3,2-a]isoquinolin-9-yloxy))-N-[4-(trifluoromethoxy)phenyl]carbox-amide]",Activity on DiI-LDL uptake,[3],++
same,Activity on LDLR mRNA expression (Fold of control),[4],2.20 ± 0.06 Fold of control
COc1cc(NC(=O)Oc2c(OC)ccc3c2CN2CCc4cc5c(cc4C2C3)OCO5)cc(OC)c1 (stereo not drawn) [Compound 45],Activity on DiI-LDL uptake,[3],++
same,Activity on LDLR mRNA expression (Fold of control),[4],2.09 ± 0.11 Fold of control
"COc1ccc2c(c1OC(=O)Nc1cccc(C)c1)CN1CCc3cc4c(cc3C1C2)OCO4 (stereo not drawn) [Compound 46, (10-methoxy(5,6,7,8,13,13a-hexahydro-2H-1,3-dioxolano[4,5-g]isoquinolino[3,2-a]isoquinolin-9-yloxy))-N-(3-methylphenyl)carboxamide]",Activity on DiI-LDL uptake,[3],++
same,Activity on LDLR mRNA expression (Fold of control),[4],1.80 ± 0.16 Fold of control
"CCOC(=O)Oc1c(OC)ccc2c1CN1CCc3cc4c(cc3C1C2)OCO4 (stereo not drawn) [Compound 48, 10-methoxy-5,6,7,8,13,13a-hexahydro-2H-1,3-dioxolano[4,5-g]isoquinolino[3,2-a]isoquinolin-9-yl ethoxyformate]",Activity on LDLR mRNA expression (Fold of control),[4],1.45 ± 0.15 Fold of control
"COc1ccc2c(c1OC(=O)Nc1ccccc1)CN1CCc3cc4c(cc3C1C2)OCO4 (stereo not drawn) [Compound 61, (10-methoxy(5,6,7,8,13,13a-hexahydro-2H-1,3-dioxolano[4,5-g]isoquinolino[3,2-a]isoquinolin-9-yloxy))-N-benzamide]",Activity on LDLR mRNA expression (Fold of control),[4],1.33 ± 0.53 Fold of control
"COc1ccc2c(c1)CCN1Cc3c(ccc(OC)c3OS(=O)(=O)c3ccccc3)CC21 (stereo not drawn) [Compound 115, 3,10-Dimethoxy-5,6,7,8,13,13a-hexahydroisoquinolino[2,1-b]isoquinolin-9-yl benzenesulfonate]",Activity in LDL uptake (relative to control),[3]; [12],+++
same,Activity on LDLR mRNA at 40 uM (fold of control),[4],2.65 ± 0.06 fold of control
"COc1ccc2c(c1OS(=O)(=O)c1ccccc1)CN1CCc3cc4c(cc3C1C2)OCCO4 (stereo not drawn) [Compound 116, 11-Methoxy-6,7,8,9,14,14a-hexahydro-2H,3H-1,4-dioxano[5,6-g]isoquinolino[3,2-a]isoquinolin-10-yl benzenesulfonate]",Activity in LDL uptake (relative to control),[3]; [13],+++/+++
same,Activity in LDL uptake (relative to control),[3]; [12],+++/+++
"COc1ccc2c(c1OS(=O)(=O)c1ccccc1)CN1CCc3cc(C)ccc3C1C2 (stereo not drawn) [Compound 121, 10-Methoxy-3-methyl-5,6,7,8,13,13a-hexahydroisoquinolino[2,1-b]isoquinolin-9-yl benzenesulfonate]",Activity on LDLR mRNA at 10 uM (fold of control),[4],3.56 ± 0.03 fold of control
same,Activity on LDLR mRNA at 40 uM (fold of control),[4],3.43 ± 0.81 fold of control
"COc1cc2c(cc1OC)C1C(C)c3ccc(OC)c(OS(=O)(=O)c4ccccc4)c3CN1CC2 (stereo not drawn) [Compound 139, 2,3,10-Trimethoxy-13-methyl-5,6,7,8,13,13a-hexahydro-isoquinolino[2,1-b]isoquinolin-9-yl benzensulfonate]",Activity on LDLR mRNA at 10 uM (fold of control),[4],11.5 ± 1.29 fold of control
same,Activity on LDLR mRNA at 40 uM (fold of control),[4],3.02 ± 0.34 fold of control
"COc1ccc2c(c1)CCN1Cc3c(ccc(OC)c3OS(=O)(=O)c3ccccc3)C(C)C21 (stereo not drawn) [Compound 140, 3,10-Dimethoxy-13-methyl-5,6,7,8,13,13a-hexahydro-isoquinolino[2,1-b]isoquinolin-9-yl benzenesulfonate]",Activity on LDLR mRNA at 10 uM (fold of control),[4],6.65 ± 0.68 fold of control
"COc1ccc2c(c1)CCN1Cc3c(cccc3OS(=O)(=O)c3cccc(F)c3)CC21 (stereo not drawn) [Compound 150, 3-methoxy-5,6,7,8,13,13a-hexahydroisoquinolino[2,1-b]isoquinolin-9-yl 3-fluorobenzenesulfonate]",Activity in LDL uptake (relative to control),[3]; [13],+/+
same,Activity in LDL uptake (relative to control),[3]; [12],+/+
"CCC(C)(C)C(=O)O[C@H]1C[C@@H](C)C=C2C=C[C@H](C)[C@H](CC[C@@H]3C[C@@H](O)CC(=O)O3)[C@H]21 [SMV, simvastatin, reference compound]",CK,[1],6492.8 U/L
same,GLU,[1],7.9 mmol/L
same,ALP,[2]; [6],288.7 IU/L
same,CREA,[2]; [6],242.2 µmol/L
same,HDL-C,[2]; [6],2.9 mmol/L
same,LDH,[2]; [6],530.3 IU/L
same,LDL-C,[2]; [6],23.3 mmol/L
same,TC,[2]; [6],26.2 mmol/L
same,TG,[2]; [6],1.7 mmol/L
same,serum total cholesterol level,[2]; [7],28.8 ± 7.4
same,serum total cholesterol level,[2]; [8],24.8 ± 6.1
same,serum total cholesterol level,[2]; [9],26.1 ± 4.4
same,serum total cholesterol level,[2]; [10],25.4 ± 6.1
same,serum total cholesterol level,[2]; [11],26.2 ± 5.5
"CN1CCc2cc3c(cc2[C@H]1[C@@H]1O[C@H](O)c2c1ccc1c2OCO1)OCO3 [d-(+)-EGN, (+)-egenine]",Activity on DiI-LDL uptake,[3],+
"CC(C)OC(=O)C(C)(C)Oc1ccc(C(=O)c2ccc(Cl)cc2)cc1 [fenofibrate, reference compound]",Body and liver weights,[5],elevated by a statistically significant amount
